Read-outs that look alike come from different tables or passages of the source.
Columns and labels:
human recombinant AChE = biological target: T1, human recombinant AChE (Homo sapiens, UniProt P22303); assay: AChE inhibition, Ellman assay; type: biochemical; conditions: 37°C
T1 construct: made in house
Experimental: Candidate phytochemicals dissolved in DMSO were tested for AChE inhibitory activity by the Ellman assay with minor modifications. Ten μL of human recombinant AChE (prepared in-house) and 1 μL of drug were added into 190 μL of PBS buffer (100 mM, pH 7.4) and incubated in a 96-well plate at 37°C for 10 min. […] After 10 min incubation with the substrate, the optical densities were measured in a 96-well plate reader at 412 nm. The optical density was inversely proportional to the inhibitory activity. By contrast, a blank control without the tested compound was also performed in parallel; the normal hydrolytic rate of the enzyme can be represented by the blank control. Each assay was performed in triplicate.
The percentage inhibitory activities of the various compounds were calculated by comparison with the positive control and the blank control. […] Data analysis was performed with Prism software. Inhibitory effects were expressed as IC50 value calculated by regression analysis.

SH-SY5Y cells [1] = assay: MTT cell viability, H2O2-induced cell death; type: cell-based, human
Experimental: (§1) Human neuroblastoma SH-SY5Y cells were from ATCC (Manassas, VA, usa) and maintained in DMEM/F-12 containing 10% FBS and maintained at 37°C with 95% humidified air and 5% CO2. Rat adrenal medulla pheochromocytoma PC12 cells were from ATCC (Manassas, VA, USA) and maintained in DMEM containing 10% FBS at 37°C with 95% humidified air and 5% CO2.
(§2) MTT colorimetric assay was performed to determine the cell viability. Cells were seeded in 96-well plates at a density of 5 × 10^3 cells/well and treated with test chemicals at desired concentration at 37°C for 12 hours. Subsequently, cells were stimulated with H2O2 (500 μM) for 4 hours. After the exposure period, the cells were incubated with 20 μL MTT (5 mg/mL) for 4 h. The cells were eluted with DMSO and quantified with a spectrophotometer (Ultramark Microplate Reader, Bio-Rad) at a wavelength of 590 nm.

PC12 cells [2] = assay: MTT cell viability, H2O2-induced cell death; type: cell-based, rat
Experimental: as §1, §2

SH-SY5Y cells [3] = assay: Cytotoxicity test by MTT without H2O2; type: cell-based, human; conditions: 10 μM, 12 h, no H2O2
Experimental: as §2
(§3) Figure 1 Potential AChE inhibitors of natural products attenuated H2O2-induced cell death in both SH-SY5Y and PC12 cells. SH-SY5Y (a) or PC12 (b) cells were cultured with desired concentration of H2O2 for 4 hours; the cell viability was detected by MTT. Data shown are means ± SEM of results from independent experiments in triplicate. *P < 0.05 compared with control cells. SH-SY5Y (c) or PC12 (d) cells were incubated with different potential AChE inhibitors (10 μM) for 12 hours and then stimulated with H2O2 (500 μM) for 4 hours, and the viability was detected by MTT. […] For cytotoxicity test, SH-SY5Y (e) or PC12 (f) cells were incubated with different potential AChE inhibitors (10 μM) for 12 hours, and the viability was detected by MTT. […]

PC12 cells [4] = assay: Cytotoxicity test by MTT without H2O2; type: cell-based, rat; conditions: 10 μM, 12 h, no H2O2
Experimental: as §2, §3

SH-SY5Y cells [5] = assay: Nuclear staining with Hoechst 33258 (apoptosis); type: cell-based, human; conditions: pretreatment 12 h, H2O2 4 h
Experimental: (§4) SH-SY5Y cells and PC12 cells (1 × 10^4 cells/well) in 24-well plates were preincubated with or without test chemicals for 12 hours and subsequently stimulated with H2O2 for the 4 hours. The nuclear morphology of apoptotic cells was measured by Hoechst 33258 nuclear staining according to the manufacturer's instructions. The nuclear morphological change was observed under a fluorescence microscope (Nikon Live Cell Imaging System Ti-E, Japan) using excitation/emission of 360/460 nm.

PC12 cells [6] = assay: Nuclear staining with Hoechst 33258 (apoptosis); type: cell-based, rat; conditions: pretreatment 12 h, H2O2 4 h
Experimental: as §4

SH-SY5Y cells [7] = assay: Intracellular ROS measurement (H2DCF-DA); type: cell-based, human; conditions: acetylshikonin 5 and 10 μM 12 h, H2O2 500 μM 2 h
Experimental: (§5) The cells were treated with desired concentration of acetylshikonin for 12 hours, and then the cells were stained with H2DCF-DA (10 μM) for 30 min. After 30 min staining, cells were stimulated with H2O2 (500 μM) for 2 h, and the fluorescence intensity of H2DCF-DA was measured/detected by a fluorescence spectrophotometer (M1000, TECAN, Austria GmbH, Austria) using excitation/emission of 485/530 nm and a fluorescence microscope (Nikon Live Cell Imaging System Ti-E, Japan) using excitation/emission of 490/530 nm, respectively. Fluorescence intensity of each group was normalized to the control group.

PC12 cells [8] = assay: Intracellular ROS measurement (H2DCF-DA); type: cell-based, rat; conditions: acetylshikonin 5 and 10 μM 12 h, H2O2 500 μM 2 h
Experimental: as §5

SH-SY5Y cells [9] = assay: Mitochondrial membrane potential (Rhodamine 123); type: cell-based, human; conditions: pretreatment 12 h, H2O2 500 μM 2 h
Experimental: as §5, with “were” for “were stained with H2DCF-DA (10 μM) for 30 min. After 30 min staining, cells were”, “2 h. Rhodamine 123 (2 μM) was added to cells after” for “2 h, and”, “the treatment for 30 min at 37°C. Fluorescence” for “the fluorescence”, “of Rhodamine 123” for “of H2DCF-DA”, “Japan) and” for “Japan)”

PC12 cells [10] = assay: Mitochondrial membrane potential (Rhodamine 123); type: cell-based, rat; conditions: pretreatment 12 h, H2O2 500 μM 2 h
Experimental: as §5, with “were” for “were stained with H2DCF-DA (10 μM) for 30 min. After 30 min staining, cells were”, “2 h. Rhodamine 123 (2 μM) was added to cells after” for “2 h, and”, “the treatment for 30 min at 37°C. Fluorescence” for “the fluorescence”, “of Rhodamine 123” for “of H2DCF-DA”, “Japan) and” for “Japan)”

[11] = system: Bcl-2, Bax, p53, caspase-3 in SH-SY5Y cells; assay: Western blot of apoptosis-related proteins; type: cell-based, human; conditions: pretreatment 12 h, H2O2 500 μM 1 h
Experimental: (§6) Proteins in the total cell lysate were separated by 10% SDS polyacrylamide gel electrophoresis and electrotransferred to a polyvinylidene difluoride membrane (Immobilon-P membrane; Millipore, Bedford, MA, USA). After the blot was blocked in a solution of 5% bovine serum albumin, membrane was incubated overnight with primary antibodies against Bcl-2, Bax, Caspase-3, p53, HO-1, or beta-actin followed by incubation with horseradish peroxidase-conjugated secondary antibodies for 1 h. Specific bands were detected with ECL-plus western blotting detection reagent (GE Healthcare Bio-Sciences) and photographed with FujiFilm LAS-3000 (Fujifilm, Tokyo, Japan).

[12] = system: Bcl-2, Bax, p53, caspase-3 in PC12 cells; assay: Western blot of apoptosis-related proteins; type: cell-based, rat; conditions: pretreatment 12 h, H2O2 500 μM 1 h
Experimental: as §6

HO-1 in SH-SY5Y cells = assay: Western blot of HO-1 expression; type: cell-based, human; conditions: acetylshikonin 12 h, H2O2 500 μM 1 h
Experimental: as §6

HO-1 in PC12 cells = assay: Western blot of HO-1 expression; type: cell-based, rat; conditions: acetylshikonin 12 h, H2O2 500 μM 1 h
Experimental: as §6

[13] = IC50, human recombinant AChE, pH 7.4
[14] = acetylshikonin 1–10 μM 12 h, then H2O2 500 μM 4 h
[15] = test chemical 10 μM 12 h, then H2O2 500 μM 4 h
[16] = human recombinant AChE, pH 7.4, read-out: IC50
[17] = ZnPP 10 μM 2 h, acetylshikonin 12 h, H2O2 500 μM 4 h, MTT

T1 sequence (P22303 32-614): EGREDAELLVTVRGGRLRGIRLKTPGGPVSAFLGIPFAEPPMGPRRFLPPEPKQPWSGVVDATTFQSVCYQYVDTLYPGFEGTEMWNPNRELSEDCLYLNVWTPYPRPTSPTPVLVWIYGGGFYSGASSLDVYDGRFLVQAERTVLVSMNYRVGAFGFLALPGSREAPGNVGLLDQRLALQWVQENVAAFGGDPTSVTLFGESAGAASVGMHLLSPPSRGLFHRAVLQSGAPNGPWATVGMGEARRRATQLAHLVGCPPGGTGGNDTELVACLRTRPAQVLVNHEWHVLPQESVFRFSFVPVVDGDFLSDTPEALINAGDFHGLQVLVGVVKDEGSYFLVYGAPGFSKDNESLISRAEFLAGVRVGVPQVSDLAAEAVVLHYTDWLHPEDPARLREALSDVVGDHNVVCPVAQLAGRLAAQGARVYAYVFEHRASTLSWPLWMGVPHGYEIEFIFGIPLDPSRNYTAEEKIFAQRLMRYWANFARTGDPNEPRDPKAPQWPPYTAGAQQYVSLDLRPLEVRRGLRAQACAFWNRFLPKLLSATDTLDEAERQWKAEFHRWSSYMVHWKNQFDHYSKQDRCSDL

For `CC(=O)O[C@H](CC=C(C)C)C1=CC(=O)c2c(O)ccc(O)c2C1=O` [Acetylshikonin], the IC50 (human recombinant AChE; [13]) was 34.6 µM, the “H2O2-induced cell death and morphology change, dose dependence” value (SH-SY5Y cells [1]; [14]) was “dose dependently attenuated” and the “H2O2-induced cell death (cell viability, MTT)” value (SH-SY5Y cells [1]; [15]) was “highest viability”. The “H2O2-induced cell death and morphology change, dose dependence” value (PC12 cells [2]; [14]) was “dose dependently attenuated”, the “H2O2-induced cell death (cell viability, MTT)” value (PC12 cells [2]; [15]) was “highest viability” and the “Cytotoxicity in MTT assay” value (SH-SY5Y cells [3]) was “not observed”. The “Cytotoxicity in MTT assay” value (PC12 cells [4]) was “not observed”, the “H2O2-induced cell shrinkage and nuclear condensation (Hoechst 33258)” value (SH-SY5Y cells [5]) was “dramatically ameliorated” and the “H2O2-induced cell shrinkage and nuclear condensation (Hoechst 33258)” value (PC12 cells [6]) was “dramatically ameliorated”. The “H2O2-induced ROS generation” value (SH-SY5Y cells [7]) was “statistically declined”, the “H2O2-induced ROS generation” value (PC12 cells [8]) was “statistically declined” and the “H2O2-induced mitochondrial membrane potential loss” value (SH-SY5Y cells [9]) was “rescued by acetylshikonin in a dose-dependent manner”. The “H2O2-induced mitochondrial membrane potential loss” value (PC12 cells [10]) was “rescued by acetylshikonin in a dose-dependent manner”, the “Bax and p53 expression” value [11] was “decreased” and the Bcl-2 expression [11] was “increased expression”. For the same compound, the “H2O2-induced decreased caspase-3 and increased cleaved caspase-3” value [11] was “rescued by acetylshikonin in a dose-dependent manner”, the “Bax and p53 expression” value [12] was “decreased” and the Bcl-2 expression [12] was “increased expression”. For the same compound, the “H2O2-induced decreased caspase-3 and increased cleaved caspase-3” value [12] was “rescued by acetylshikonin in a dose-dependent manner”, the HO-1 expression (HO-1 in SH-SY5Y cells) was “increased” and the HO-1 expression (HO-1 in PC12 cells) was “no impact”.

With `O=C1c2cccc(O)c2C(=O)c2c(O)cc(CO)cc21` [Aloe-emodin] the IC50 (human recombinant AChE; [13]) was 26.8 µM.

Compound `COc1c2occc2cc2ccc(=O)oc12` [Xanthotoxin] has an IC50 (human recombinant AChE; human recombinant AChE, pH 7.4) of 133 µM.

`CC(C)=CC[C@@H](O)C1=CC(=O)c2c(O)ccc(O)c2C1=O` [Shikonin] showed an IC50 (human recombinant AChE; [13]) of 71.8 µM.

Compound `O=C(O)c1cc(O)c2c(c1)C(=O)c1cccc(O)c1C2=O` [Rhein] has an IC50 (human recombinant AChE; [13]) of 237 µM.

For `Cc1cc(O)c2c(c1)C(=O)c1cccc(O)c1C2=O` [Chrysophanol], the IC50 (human recombinant AChE; [13]) was 75.8 µM.

In the case of `CC(C)=CCOc1c2occc2cc2ccc(=O)oc12` [Imperatorin], the IC50 (human recombinant AChE; human recombinant AChE, pH 7.4) is reported as “Undetected”.

For `CC(C)=CCC(OC(=O)CC(C)C)C1=CC(=O)c2c(O)ccc(O)c2C1=O` (stereo not shown) [Isovalerylshikonin], the IC50 (human recombinant AChE; [16]) was 82.4 µM.

`Cc1cc(O)c2c(c1)C(=O)c1cc(O)cc(O)c1C2=O` [Emodin] showed an IC50 (human recombinant AChE; [13]) of 21.8 µM.

In the case of `C=CC1=C(C)c2cc3[n-]c(cc4[n-]c(cc5nc(cc1n2)C(C)=C5C=C)c(C)c4CCC(=O)O)c(CCC(=O)O)c3C.[Zn+2]` [ZnPP, zinc protoporphyrin IX, reference compound], the “Effect of ZnPP on protective effects of acetylshikonin on H2O2-induced cell death” value (SH-SY5Y cells [1]; [17]) is reported as “reversed the protective effects” and the “Effect of ZnPP on protective effects of acetylshikonin on H2O2-induced cell death” value (PC12 cells [2]; [17]) is reported as “not observed”.

Work on `COc1c2ccoc2c(OCC=C(C)C)c2oc(=O)ccc12` [Phellopterin] yielded an IC50 (human recombinant AChE; [16]) of 177 µM.

Work on `CC(C)=CCC(OC(=O)C=C(C)C)C1=CC(=O)c2c(O)ccc(O)c2C1=O` (stereo not drawn) [β,β-Dimethylacrylshikonin] yielded an IC50 (human recombinant AChE; human recombinant AChE, pH 7.4) of 62.4 µM.

With `CC(C)=CCc1c2occc2c(O)c2ccc(=O)oc12` [Alloisoimperatorin] the IC50 (human recombinant AChE; [16]) was 20.7 µM.
